Key:
Assay type in all cases: cell-based
[1] = molecular target: T1, α5β3γ2 GABAA receptors (Rattus norvegicus, UniProt P19969+P63079); assay: Two electrode voltage clamp in Xenopus laevis oocytes, α5β3γ2
T1 construct: expressed in transfected cells; host or cells: Xenopus laevis oocytes, mRNA injected
Text: (§1) cDNA’s of rat GABAA receptor subunits α1, α4, β1, β2, β3 and γ2S were cloned as described. cDNAs of the rat subunits α2, α3 and α5 were gifts from P. Malherbe, that of α6 and γ1 were gifts of P. Seeburg and that of δ was a gift of C. Czajkowski. The mutants were constructed using the Q5 Site-Directed Mutagenesis Kit (New England Biolabs) following manufacturer’s instruction. We used the wild-type rat β3-pCI vector as template and the primers […] and […] resulting in a substitution of amino acid N41 (AAC) to R (AGG). We used the wild-type rat β1-pCI vector as template and the primers […] and […] resulting in a substitution of amino acid R41 (CGG) to N (AAC). The mutated subunits were confirmed by sequencing.
(§2) In vitro transcription of mRNA was based on the cDNA expression vectors encoding for rat GABAA receptor subunits α1–6, β1-3, γ1,2, δ and the two β mutants (β1R41N and β3N41R)[40]. After linearizing the cDNA vectors with appropriate restriction endonucleases, the cDNA was purified and concentrated with the DNA Clean and Contentrator ^TM Kit (Zymoresearch, Catalog No. D4005). Capped transcripts of the purified cDNA were produced using the mMESSAGE mMACHINE® T7 transcription kit (Ambion, TX, USA) and polyadenylated using the Ambion PolyA tailing kit (Ambion). After transcription and polyadenylation the RNA was purified with the MEGAclear ^TM Kit (Ambion, Catalog No. AM1908). The final RNA concentration was measured on NanoDrop® ND-1000 and finally diluted and stored in diethylpyrocarbonate-treated water at −80 °C. For the microinjection, the RNA of αβ receptor combinations was mixed at 1:1 ratio (which leads to αβ receptors that consist of predominantly 3 beta and 2 alpha subunits[27]), for αkβlγm (k = 1–3, l = 1, 3, m = 1, 2) receptors at 1:1:5 ratio, for αkβ3γ2 (k = 4–6) and αkβlδ (k = 1, 4 and 6, l = 1, 3) receptor combinations at 3:1:5 ratio.
(§3) Mature female Xenopus laevis (Nasco, WI) were anesthetized in a bath of ice-cold 0.17% Tricain (Ethyl-m-aminobenzoate, Sigma, MO) before decapitation in full accordance with all rules of the Austrian animal protection law (see http://www.ris.bka.gv.at/Dokumente/BgblAuth/BGBLA_2012_I_114/BGBLA_2012_I_114.pdf) and the Austrian animal experiment by-laws (see https://www.ris.bka.gv.at/Dokumente/BgblAuth/BGBLA_2012_II_522/BGBLA_2012_II_522.pdf) which implement the European Directive 2010/63/EU (see http://eur-lex.europa.eu/LexUriServ/LexUriServ.do?uri=OJ:L:2010:276:0033:0079:en:PDF) into the Austrian law (all information accessed on July 27, 2016). The frog’s ovaries were transferred to ND96 medium (96 mM NaCl, 2 mM KCl, 1 mM MgCl2, 5 mM HEPES; pH 7.5). Stage 5–6 oocytes with the follicle cell layer around them were roughly dissected with forceps into packages of 10–15 cells and washed in Ca^2+-free ND96 medium. Cells were then digested with collagenase (type IA, Sigma, NO, 1 mg/mL ND96) at 18 °C shaking at 30 rpm for 30–60 minutes and gently defolliculated with the aid of a glass pipette with appropriate tip diameter and a platinum loop. Defolliculated cells were stored at 18 °C for at least 6 hours in ND96 solution containing penicillin G (10000 IU/100 mL) and streptomycin (10 mg/100 mL) in order to preselect and exclude damaged cells from further treatment. Healthy defolliculated oocytes were injected with an aqueous solution of mRNA. A total of 4.5 ng of mRNA per oocyte was injected with a Nanoject II (Drummond). After injection of mRNA, oocytes were incubated at 18 °C (ND96 + antibiotic) for 2–3 days for αβ receptors and for 3–4 days for αβγ or αβδ receptors before recording. When cells were measured at later time points, oocytes were stored at +4 °C instead of 18 °C.
(§4) For electrophysiological recordings, oocytes were placed on a nylon-grid in a bath of Ca^2+-containing NDE solution medium [96 mM NaCl, 5 mM HEPES-NaOH (pH 7.5), 2 mM KCl, 1 mM MgCl2, 1.8 mM CaCl2].

[2] = molecular target: T2, α3β3 GABAA receptors (Rattus norvegicus, UniProt P20236+P63079); assay: Two electrode voltage clamp in Xenopus laevis oocytes, α3β3
T2 construct: expressed in transfected cells; host or cells: Xenopus laevis oocytes, mRNA injected
T2 sequence (P20236 29-493): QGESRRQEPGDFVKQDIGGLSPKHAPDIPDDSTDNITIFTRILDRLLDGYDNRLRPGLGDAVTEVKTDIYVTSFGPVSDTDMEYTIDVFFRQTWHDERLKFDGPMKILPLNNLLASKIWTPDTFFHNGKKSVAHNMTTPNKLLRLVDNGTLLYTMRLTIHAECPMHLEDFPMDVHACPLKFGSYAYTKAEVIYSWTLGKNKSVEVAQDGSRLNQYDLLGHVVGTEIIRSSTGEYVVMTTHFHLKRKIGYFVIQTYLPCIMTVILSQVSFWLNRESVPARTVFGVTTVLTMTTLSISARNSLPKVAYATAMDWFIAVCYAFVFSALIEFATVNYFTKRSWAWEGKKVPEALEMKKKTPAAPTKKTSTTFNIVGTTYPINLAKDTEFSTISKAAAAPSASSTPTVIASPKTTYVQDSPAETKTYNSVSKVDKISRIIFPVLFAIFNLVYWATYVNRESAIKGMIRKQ
T2 sequence (P63079 26-473): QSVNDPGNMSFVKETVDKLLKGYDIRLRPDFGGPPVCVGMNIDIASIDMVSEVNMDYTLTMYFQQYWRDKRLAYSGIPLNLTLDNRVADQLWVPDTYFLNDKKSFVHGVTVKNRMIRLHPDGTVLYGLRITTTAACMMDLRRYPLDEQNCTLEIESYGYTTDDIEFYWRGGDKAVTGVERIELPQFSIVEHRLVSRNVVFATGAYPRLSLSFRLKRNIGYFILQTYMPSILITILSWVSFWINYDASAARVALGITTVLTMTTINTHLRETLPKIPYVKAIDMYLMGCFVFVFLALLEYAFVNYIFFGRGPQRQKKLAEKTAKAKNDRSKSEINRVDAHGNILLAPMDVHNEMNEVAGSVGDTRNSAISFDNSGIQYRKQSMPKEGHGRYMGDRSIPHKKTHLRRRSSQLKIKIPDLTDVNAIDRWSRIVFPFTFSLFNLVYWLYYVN
Text: as §1, §2, §3, §4

[3] = molecular target: T3, α6β3γ2 GABAA receptors (Rattus norvegicus, UniProt P30191+P63079); assay: Two electrode voltage clamp in Xenopus laevis oocytes, α6β3γ2
T3 construct: expressed in transfected cells; host or cells: Xenopus laevis oocytes, mRNA injected
T3 sequence (P30191 20-453): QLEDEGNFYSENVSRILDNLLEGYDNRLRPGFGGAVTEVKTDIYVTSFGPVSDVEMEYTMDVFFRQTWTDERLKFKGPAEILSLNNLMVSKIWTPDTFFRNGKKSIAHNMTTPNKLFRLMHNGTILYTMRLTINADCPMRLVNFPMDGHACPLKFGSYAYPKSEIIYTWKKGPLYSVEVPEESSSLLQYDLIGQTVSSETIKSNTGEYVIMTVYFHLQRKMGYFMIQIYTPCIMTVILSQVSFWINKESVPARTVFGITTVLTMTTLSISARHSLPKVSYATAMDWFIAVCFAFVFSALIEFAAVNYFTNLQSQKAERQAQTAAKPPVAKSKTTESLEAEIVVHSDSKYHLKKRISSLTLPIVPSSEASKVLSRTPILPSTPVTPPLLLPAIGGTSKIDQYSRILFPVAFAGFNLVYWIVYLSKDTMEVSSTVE
T3 sequence (P63079 26-473): as the sequence (P63079 26-473) above
T3 sequence (P18508 39-466 partner): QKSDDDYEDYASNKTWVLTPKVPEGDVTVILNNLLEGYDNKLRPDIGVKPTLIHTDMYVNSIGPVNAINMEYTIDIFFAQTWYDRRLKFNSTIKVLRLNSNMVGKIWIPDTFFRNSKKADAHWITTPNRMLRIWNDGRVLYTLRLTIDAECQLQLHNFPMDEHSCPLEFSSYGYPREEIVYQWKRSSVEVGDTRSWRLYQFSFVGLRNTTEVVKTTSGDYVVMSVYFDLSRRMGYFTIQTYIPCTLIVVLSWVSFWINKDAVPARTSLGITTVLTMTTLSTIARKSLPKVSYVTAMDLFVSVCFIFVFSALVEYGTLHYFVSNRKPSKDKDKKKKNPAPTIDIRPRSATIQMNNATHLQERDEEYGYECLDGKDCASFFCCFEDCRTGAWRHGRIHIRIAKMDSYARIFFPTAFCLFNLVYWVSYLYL
Text: as §1, §2, §3, §4

[4] = molecular target: T4, α1β3γ2 GABAA receptors (Rattus norvegicus, UniProt P62813+P63079); assay: Two electrode voltage clamp in Xenopus laevis oocytes, α1β3γ2
T4 construct: expressed in transfected cells; host or cells: Xenopus laevis oocytes, mRNA injected
T4 sequence (P62813 28-455): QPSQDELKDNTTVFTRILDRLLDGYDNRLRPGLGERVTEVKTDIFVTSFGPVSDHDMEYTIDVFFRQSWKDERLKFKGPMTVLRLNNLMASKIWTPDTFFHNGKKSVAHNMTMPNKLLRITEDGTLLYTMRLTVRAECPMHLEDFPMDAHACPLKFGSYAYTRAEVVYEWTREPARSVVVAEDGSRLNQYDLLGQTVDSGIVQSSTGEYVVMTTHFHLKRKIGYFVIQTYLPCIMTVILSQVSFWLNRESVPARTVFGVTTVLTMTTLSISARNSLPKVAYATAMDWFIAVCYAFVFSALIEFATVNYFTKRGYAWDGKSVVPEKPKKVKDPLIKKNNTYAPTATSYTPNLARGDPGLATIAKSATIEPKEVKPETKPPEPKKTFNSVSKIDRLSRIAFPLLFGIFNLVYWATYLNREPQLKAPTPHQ
T4 sequence (P63079 26-473): as the sequence (P63079 26-473) above
T4 sequence (P18508 39-466 partner): as the sequence (P18508 39-466 partner) above
Text: as §1, §2, §3, §4

[5] = molecular target: T5, α3β3γ2 GABAA receptors (Rattus norvegicus, UniProt P20236+P63079); assay: Two electrode voltage clamp in Xenopus laevis oocytes, α3β3γ2
T5 construct: expressed in transfected cells; host or cells: Xenopus laevis oocytes, mRNA injected
T5 sequence (P20236 29-493): as the sequence (P20236 29-493) above
T5 sequence (P63079 26-473): as the sequence (P63079 26-473) above
T5 sequence (P18508 39-466 partner): as the sequence (P18508 39-466 partner) above
Text: as §1, §2, §3, §4

[6] = molecular target: T6, α4β3γ2 GABAA receptors (Rattus norvegicus, UniProt P28471+P63079); assay: Two electrode voltage clamp in Xenopus laevis oocytes, α4β3γ2
T6 construct: expressed in transfected cells; host or cells: Xenopus laevis oocytes, mRNA injected
T6 sequence (P28471 36-552): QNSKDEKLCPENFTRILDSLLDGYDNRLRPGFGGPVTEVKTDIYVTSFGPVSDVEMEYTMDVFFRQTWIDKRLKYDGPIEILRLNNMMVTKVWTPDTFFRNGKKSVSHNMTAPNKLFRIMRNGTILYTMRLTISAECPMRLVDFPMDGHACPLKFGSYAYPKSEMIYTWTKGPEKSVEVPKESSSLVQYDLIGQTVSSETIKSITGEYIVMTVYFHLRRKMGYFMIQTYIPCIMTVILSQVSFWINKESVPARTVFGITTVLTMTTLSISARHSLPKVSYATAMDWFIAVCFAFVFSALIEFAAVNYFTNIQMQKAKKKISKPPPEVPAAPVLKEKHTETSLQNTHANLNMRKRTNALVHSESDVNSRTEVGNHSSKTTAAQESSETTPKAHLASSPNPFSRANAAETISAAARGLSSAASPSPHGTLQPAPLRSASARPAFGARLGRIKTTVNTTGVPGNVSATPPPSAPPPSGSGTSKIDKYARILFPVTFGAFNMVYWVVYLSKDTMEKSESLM
T6 sequence (P63079 26-473): as the sequence (P63079 26-473) above
T6 sequence (P18508 39-466 partner): as the sequence (P18508 39-466 partner) above
Text: as §1, §2, §3, §4

[7] = molecular target: T7, α2β3 GABAA receptors (Rattus norvegicus, UniProt P23576+P63079); assay: Two electrode voltage clamp in Xenopus laevis oocytes, α2β3; details: α2β3
T7 construct: expressed in transfected cells; host or cells: Xenopus laevis oocytes, mRNA injected
T7 sequence (P23576 29-451): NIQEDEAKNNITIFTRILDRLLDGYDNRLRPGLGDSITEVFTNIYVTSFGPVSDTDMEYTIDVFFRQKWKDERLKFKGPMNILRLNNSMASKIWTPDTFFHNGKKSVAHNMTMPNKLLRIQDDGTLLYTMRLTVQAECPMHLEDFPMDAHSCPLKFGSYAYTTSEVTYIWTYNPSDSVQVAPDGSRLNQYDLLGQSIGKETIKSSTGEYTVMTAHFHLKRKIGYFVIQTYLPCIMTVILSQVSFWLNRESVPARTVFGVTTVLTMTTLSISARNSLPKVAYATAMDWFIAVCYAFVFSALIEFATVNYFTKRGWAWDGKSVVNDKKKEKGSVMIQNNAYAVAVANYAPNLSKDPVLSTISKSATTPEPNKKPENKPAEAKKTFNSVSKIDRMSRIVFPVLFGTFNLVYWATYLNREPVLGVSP
T7 sequence (P63079 26-473): as the sequence (P63079 26-473) above
Text: as §1, §2, §3, §4

[8] = read-out: efficacy, % of control current (GABA EC3-5 = 100%), 1 nM
[9] = read-out: efficacy, % of control current (GABA EC3-5 = 100%), 10 nM
[10] = read-out: efficacy, % of control current (GABA EC3-5 = 100%), 100 nM
[11] = read-out: efficacy, % of control current (GABA EC3-5 = 100%), 1 µM
[12] = read-out: efficacy, % of control current (GABA EC3-5 = 100%), 10 µM
[13] = read-out: efficacy, % of control current (GABA EC3-5 = 100%), 300 nM

T1 sequence (P19969 32-464 limits assumed): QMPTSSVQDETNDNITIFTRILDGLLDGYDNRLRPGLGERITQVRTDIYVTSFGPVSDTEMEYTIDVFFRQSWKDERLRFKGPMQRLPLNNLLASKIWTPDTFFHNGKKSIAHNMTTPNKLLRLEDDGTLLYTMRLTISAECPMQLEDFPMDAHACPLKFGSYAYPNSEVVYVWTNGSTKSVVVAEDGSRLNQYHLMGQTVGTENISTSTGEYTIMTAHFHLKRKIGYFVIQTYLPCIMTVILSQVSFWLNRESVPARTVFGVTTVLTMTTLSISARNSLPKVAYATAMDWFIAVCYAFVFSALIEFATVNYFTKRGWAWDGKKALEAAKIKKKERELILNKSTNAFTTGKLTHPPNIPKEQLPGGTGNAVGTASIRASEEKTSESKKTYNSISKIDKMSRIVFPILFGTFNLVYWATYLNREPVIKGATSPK
T1 sequence (P63079 26-473): as the sequence (P63079 26-473) above
T1 sequence (P18508 39-466 partner): as the sequence (P18508 39-466 partner) above

EC50 [1]: 6.4 µM
activity at 0.001 µM ([1]; read-out: efficacy, % of control current (GABA EC3-5 = 100%), α5β3γ2, 1 nM): 93.3 ± 5.7%
activity at 0.01 µM ([1]; read-out: efficacy, % of control current (GABA EC3-5 = 100%), α5β3γ2, 10 nM): 95.1 ± 6.9%
activity at 0.1 µM ([1]; read-out: efficacy, % of control current (GABA EC3-5 = 100%), α5β3γ2, 100 nM): 97.7 ± 11.5%
activity at 0.3 µM ([1]; read-out: efficacy, % of control current (GABA EC3-5 = 100%), α5β3γ2, 300 nM): 103 ± 14.9%
activity at 1 µM ([1]; read-out: efficacy, % of control current (GABA EC3-5 = 100%), α5β3γ2, 1 µM): 123 ± 16.5%
activity at 10 µM ([1]; read-out: efficacy, % of control current (GABA EC3-5 = 100%), α5β3γ2, 10 µM): 220 ± 31.1%
activity at 30 µM ([1]; read-out: efficacy, % of control current (GABA EC3-5 = 100%), α5β3γ2, 30 µM): 266 ± 41%
Emax ([1]; α5-containing subtype (α5β3γ2), read-out: maximum efficacy): ~200%
EC50 [2]: 2.1 µM
activity at 0.001 µM ([2]; read-out: efficacy, % of control current (GABA EC3-5 = 100%), α3β3, 1 nM): 101.2 ± 0.8%
activity at 0.01 µM ([2]; read-out: efficacy, % of control current (GABA EC3-5 = 100%), α3β3, 10 nM): 102 ± 1.2%
activity at 0.1 µM ([2]; read-out: efficacy, % of control current (GABA EC3-5 = 100%), α3β3, 100 nM): 106 ± 1.3%
activity at 3 µM ([2]; read-out: efficacy, % of control current (GABA EC3-5 = 100%), α3β3, 3 µM): 226 ± 10.7%
activity at 10 µM ([2]; read-out: efficacy, % of control current (GABA EC3-5 = 100%), α3β3, 10 µM): 285 ± 7%
activity at 30 µM ([2]; read-out: efficacy, % of control current (GABA EC3-5 = 100%), α3β3, 30 µM): 288 ± 8.7%
EC50 ([3]; co-applied with GABA EC3-5): > 5 µM
activity at 0.001 µM [3, 8]: 106 ± 6.6%
activity at 0.01 µM [3, 9]: 114 ± 8.8%
activity at 0.1 µM [3, 10]: 152 ± 12%
activity at 1 µM [3, 11]: 297 ± 16.2%
activity at 10 µM [3, 12]: > 1000%
EC50 ([4]; co-applied with GABA EC3-5, read-out: EC50): 4.4 µM
activity at 0.001 µM [4, 8]: 100%
activity at 0.01 µM [4, 9]: 108 ± 4%
activity at 0.1 µM [4, 10]: 108 ± 4%
activity at 0.3 µM [4, 13]: 128 ± 5.6%
activity at 1 µM [4, 11]: 156 ± 19%
activity at 10 µM [4, 12]: 423 ± 106%
activity at 30 µM ([4]; read-out: efficacy, % of control current (GABA EC3-5 = 100%), 30 µM): 534 ± 136%
Emax ([4]; read-out: maximum efficacy / modulatory effects up to): ~600%
EC50 ([5]; co-applied with GABA EC3-5): 7.2 µM
activity at 0.001 µM [5, 8]: 100%
activity at 0.1 µM [5, 10]: 109 ± 1%
activity at 10 µM [5, 12]: 305 ± 71%
EC50 [6]: 13.4 µM
activity at 0.001 µM ([6]; read-out: efficacy, % of control current (GABA EC3-5 = 100%), α4β3γ2, 1 nM): 101 ± 1.8%
activity at 0.003 µM ([6]; read-out: efficacy, % of control current (GABA EC3-5 = 100%), α4β3γ2, 3 nM): 96.3 ± 8%
activity at 0.01 µM ([6]; read-out: efficacy, % of control current (GABA EC3-5 = 100%), α4β3γ2, 10 nM): 100 ± 2.2%
activity at 0.03 µM ([6]; read-out: efficacy, % of control current (GABA EC3-5 = 100%), α4β3γ2, 30 nM): 104 ± 4.4%
activity at 0.1 µM ([6]; read-out: efficacy, % of control current (GABA EC3-5 = 100%), α4β3γ2, 100 nM): 120 ± 10.1%
activity at 1 µM ([6]; read-out: efficacy, % of control current (GABA EC3-5 = 100%), α4β3γ2, 1 µM): 162 ± 16.3%
activity at 10 µM ([6]; read-out: efficacy, % of control current (GABA EC3-5 = 100%), α4β3γ2, 10 µM): 267 ± 16.8%
activity at 30 µM ([6]; read-out: efficacy, % of control current (GABA EC3-5 = 100%), α4β3γ2, 30 µM): 315 ± 30.1%
activity at 0.001 µM [7, 8]: 100%
activity at 0.01 µM [7, 9]: 100%
activity at 0.3 µM [7, 13]: 123 ± 4.9%
activity at 1 µM [7, 11]: 127 ± 9.8%
activity at 3 µM ([7]; read-out: efficacy, % of control current (GABA EC3-5 = 100%), 3 µM): 254 ± 4%
EC50 ([7]; log of EC50, sign as printed, read-out: LogEC50 (converted)): 15.8 µM
SMILES: Cc1ccc(-n2nc3c4cc(Cl)ccc4[nH]cc-3c2=O)cc1 [Compound 2, 8-Chloro-2-(4-methylphenyl)-2H-pyrazolo[4,3-c]quinolin-3(5H)-one]

Reference: PMC5516028, “Molecular tools for GABAA receptors: High affinity ligands for β1-containing subtypes” (Scientific Reports, 2017)
